# How the values were obtained:
# Type in all cases: biochemical
# [1] = target: T1, BMX (Homo sapiens, UniProt P51813); assay: BMX kinase inhibition
# T1 sequence (P51813 1-675): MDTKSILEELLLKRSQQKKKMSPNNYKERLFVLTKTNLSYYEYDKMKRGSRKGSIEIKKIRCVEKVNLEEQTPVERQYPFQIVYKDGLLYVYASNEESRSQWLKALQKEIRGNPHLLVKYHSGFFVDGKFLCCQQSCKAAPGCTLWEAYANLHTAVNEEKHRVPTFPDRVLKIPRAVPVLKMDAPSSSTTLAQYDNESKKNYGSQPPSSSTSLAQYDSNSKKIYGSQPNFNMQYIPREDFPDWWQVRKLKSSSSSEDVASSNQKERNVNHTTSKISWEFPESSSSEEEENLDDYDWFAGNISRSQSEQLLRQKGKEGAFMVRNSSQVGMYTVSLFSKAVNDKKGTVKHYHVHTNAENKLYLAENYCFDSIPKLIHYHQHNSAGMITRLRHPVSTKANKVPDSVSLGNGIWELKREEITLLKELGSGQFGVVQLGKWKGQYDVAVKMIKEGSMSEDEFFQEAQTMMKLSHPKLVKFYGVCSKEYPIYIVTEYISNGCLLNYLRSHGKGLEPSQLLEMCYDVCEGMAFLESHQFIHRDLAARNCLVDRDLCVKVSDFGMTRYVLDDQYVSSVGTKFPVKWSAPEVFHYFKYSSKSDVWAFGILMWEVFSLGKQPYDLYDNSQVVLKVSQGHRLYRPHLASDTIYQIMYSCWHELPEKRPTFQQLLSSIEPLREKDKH
# [2] = target: BLK (Homo sapiens, UniProt P51451); assay: BLK kinase inhibition
# Chain of BLK (P51451 whole entry): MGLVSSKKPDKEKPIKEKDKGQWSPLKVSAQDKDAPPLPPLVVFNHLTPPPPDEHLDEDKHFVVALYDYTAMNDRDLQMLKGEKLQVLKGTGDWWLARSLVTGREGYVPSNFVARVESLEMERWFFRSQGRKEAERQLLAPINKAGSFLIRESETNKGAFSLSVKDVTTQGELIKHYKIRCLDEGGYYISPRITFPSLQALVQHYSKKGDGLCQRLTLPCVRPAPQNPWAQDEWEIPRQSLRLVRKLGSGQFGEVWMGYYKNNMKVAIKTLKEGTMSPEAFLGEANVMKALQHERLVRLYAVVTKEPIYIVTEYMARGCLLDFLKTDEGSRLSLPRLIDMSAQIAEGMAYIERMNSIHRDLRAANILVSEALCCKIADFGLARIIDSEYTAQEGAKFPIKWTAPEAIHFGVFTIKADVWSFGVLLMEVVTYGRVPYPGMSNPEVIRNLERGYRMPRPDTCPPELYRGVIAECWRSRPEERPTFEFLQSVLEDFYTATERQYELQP
# Description: (§1) Btk kinase activity was determined using a time-resolved fluorescence resonance energy transfer (TR-FRET) methodology. Measurements were performed in a reaction volume of 50 μL using 96-well assay plates. […] The reaction was quenched by the addition of 1.2 equivalents of EDTA (relative to divalent cation) in 25 μL of 1× Lance buffer (Perkin-Elmer). Streptavidin-APC (Perkin-Elmer) and Eu-labeled p-Tyr100 antibody (Perkin-Elmer) in 1× Lance buffer were added in a 25 μL volume to give final concentrations of 100 nM and 2.5 nM, respectively, and the mixture was allowed to incubate for one hour. The TR-FRET signal was measured on a multimode plate reader with an excitation wavelength (λEx) of 330 nm and detection wavelengths (λEm) of 615 and 665 nm. Activity was determined by the ratio of the fluorescence at 665 nm to that at 615 nm. For each compound, enzyme activity was measured at various concentrations of compound. Negative control reactions were performed in the absence of inhibitor in replicates of six, and two no-enzyme controls were used to determine baseline fluorescence levels Inhibition constants, Ki(app), were obtained using the program BatchKi (Kuzmic et al. (2000), Anal. Biochem. 286:45-50). IC50s were obtained according to the equation: IC50={Ki(app)/(1+[ATP]/Km^ATP)}+[E]total/2; For all kinases, [ATP]=Km^ATP, [Btk]total=0.5 nM and [Lck]total=6 nM.
# [3] = target: Lck (Homo sapiens, UniProt P06239); assay: Lck kinase inhibition
# Chain of Lck (P06239 whole entry): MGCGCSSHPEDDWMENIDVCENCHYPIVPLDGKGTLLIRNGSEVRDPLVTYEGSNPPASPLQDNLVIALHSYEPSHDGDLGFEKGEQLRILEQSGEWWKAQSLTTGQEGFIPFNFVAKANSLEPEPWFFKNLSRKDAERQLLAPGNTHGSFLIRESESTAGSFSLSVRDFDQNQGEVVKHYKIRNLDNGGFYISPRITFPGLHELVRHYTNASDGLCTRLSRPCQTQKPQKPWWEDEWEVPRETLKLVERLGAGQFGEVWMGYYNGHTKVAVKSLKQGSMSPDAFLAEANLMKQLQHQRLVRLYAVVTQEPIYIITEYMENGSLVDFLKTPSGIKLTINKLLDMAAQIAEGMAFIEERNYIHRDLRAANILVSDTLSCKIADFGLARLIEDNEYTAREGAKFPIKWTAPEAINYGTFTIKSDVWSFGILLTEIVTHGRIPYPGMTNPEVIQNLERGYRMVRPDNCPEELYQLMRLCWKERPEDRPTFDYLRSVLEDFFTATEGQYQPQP
# Description: as §1
# [4] = target: RET (Homo sapiens, UniProt P07949); assay: RET kinase inhibition
# Chain of RET (P07949 29-1114): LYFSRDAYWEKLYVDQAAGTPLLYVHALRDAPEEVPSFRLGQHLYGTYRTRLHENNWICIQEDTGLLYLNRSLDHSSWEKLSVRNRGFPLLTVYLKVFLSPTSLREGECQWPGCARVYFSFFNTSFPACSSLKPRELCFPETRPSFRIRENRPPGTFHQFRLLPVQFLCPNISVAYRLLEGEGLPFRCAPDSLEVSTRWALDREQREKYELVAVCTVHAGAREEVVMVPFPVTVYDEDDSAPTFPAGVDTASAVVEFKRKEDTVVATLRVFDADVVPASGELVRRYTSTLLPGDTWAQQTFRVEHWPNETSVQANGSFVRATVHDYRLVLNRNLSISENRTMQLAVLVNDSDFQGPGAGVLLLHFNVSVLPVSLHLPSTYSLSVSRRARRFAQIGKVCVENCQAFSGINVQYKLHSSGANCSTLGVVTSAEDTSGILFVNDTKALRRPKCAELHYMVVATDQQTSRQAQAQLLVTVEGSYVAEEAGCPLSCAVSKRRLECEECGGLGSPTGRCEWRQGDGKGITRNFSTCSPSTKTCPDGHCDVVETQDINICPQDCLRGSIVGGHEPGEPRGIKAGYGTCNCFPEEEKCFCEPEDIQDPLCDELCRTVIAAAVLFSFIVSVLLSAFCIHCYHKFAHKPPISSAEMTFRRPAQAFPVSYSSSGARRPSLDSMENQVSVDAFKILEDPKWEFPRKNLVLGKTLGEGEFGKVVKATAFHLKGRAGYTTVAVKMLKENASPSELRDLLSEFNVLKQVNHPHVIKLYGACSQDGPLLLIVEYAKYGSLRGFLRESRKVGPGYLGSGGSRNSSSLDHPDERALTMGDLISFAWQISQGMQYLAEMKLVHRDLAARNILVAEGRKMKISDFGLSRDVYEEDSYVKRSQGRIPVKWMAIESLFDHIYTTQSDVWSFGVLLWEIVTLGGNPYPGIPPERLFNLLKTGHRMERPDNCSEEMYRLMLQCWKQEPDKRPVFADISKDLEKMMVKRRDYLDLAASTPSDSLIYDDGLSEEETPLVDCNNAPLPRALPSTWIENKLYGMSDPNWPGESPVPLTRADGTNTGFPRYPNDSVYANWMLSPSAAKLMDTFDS
# [5] = target: T2, Tec (Homo sapiens, UniProt P42680); assay: Tec kinase inhibition
# T2 sequence (P42680 1-631): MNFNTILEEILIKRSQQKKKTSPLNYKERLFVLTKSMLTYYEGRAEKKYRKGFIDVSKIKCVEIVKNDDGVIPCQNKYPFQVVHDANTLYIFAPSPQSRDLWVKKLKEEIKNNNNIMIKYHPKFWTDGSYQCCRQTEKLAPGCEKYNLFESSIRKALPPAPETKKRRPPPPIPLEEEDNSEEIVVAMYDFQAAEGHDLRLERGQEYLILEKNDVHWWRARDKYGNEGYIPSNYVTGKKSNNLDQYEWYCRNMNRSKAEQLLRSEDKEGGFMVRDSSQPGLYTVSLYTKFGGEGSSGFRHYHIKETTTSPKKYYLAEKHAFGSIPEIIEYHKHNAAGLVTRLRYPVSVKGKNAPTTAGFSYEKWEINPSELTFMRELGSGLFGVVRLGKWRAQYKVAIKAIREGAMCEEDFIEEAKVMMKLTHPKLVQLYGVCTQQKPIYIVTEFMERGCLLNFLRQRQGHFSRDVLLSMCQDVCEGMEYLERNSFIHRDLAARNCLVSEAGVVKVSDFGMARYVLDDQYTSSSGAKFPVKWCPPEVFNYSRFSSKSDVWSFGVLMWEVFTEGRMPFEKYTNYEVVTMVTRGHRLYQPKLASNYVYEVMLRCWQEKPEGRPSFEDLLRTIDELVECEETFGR
# Description: as §1
# [6] = target: T3, Btk (Homo sapiens, UniProt Q06187); assay: Btk in vitro inhibitory activity (one of Methods A, B, C); details: determined in one of three in vitro assays (Examples 125-127)
# T3 construct: purified from insect cells as a full-length construct containing a N-terminal 6×-His tag; 6xHis (N); host or cells: insect cells (baculovirus Sf21 in Method B)
# T3 sequence (Q06187 whole entry): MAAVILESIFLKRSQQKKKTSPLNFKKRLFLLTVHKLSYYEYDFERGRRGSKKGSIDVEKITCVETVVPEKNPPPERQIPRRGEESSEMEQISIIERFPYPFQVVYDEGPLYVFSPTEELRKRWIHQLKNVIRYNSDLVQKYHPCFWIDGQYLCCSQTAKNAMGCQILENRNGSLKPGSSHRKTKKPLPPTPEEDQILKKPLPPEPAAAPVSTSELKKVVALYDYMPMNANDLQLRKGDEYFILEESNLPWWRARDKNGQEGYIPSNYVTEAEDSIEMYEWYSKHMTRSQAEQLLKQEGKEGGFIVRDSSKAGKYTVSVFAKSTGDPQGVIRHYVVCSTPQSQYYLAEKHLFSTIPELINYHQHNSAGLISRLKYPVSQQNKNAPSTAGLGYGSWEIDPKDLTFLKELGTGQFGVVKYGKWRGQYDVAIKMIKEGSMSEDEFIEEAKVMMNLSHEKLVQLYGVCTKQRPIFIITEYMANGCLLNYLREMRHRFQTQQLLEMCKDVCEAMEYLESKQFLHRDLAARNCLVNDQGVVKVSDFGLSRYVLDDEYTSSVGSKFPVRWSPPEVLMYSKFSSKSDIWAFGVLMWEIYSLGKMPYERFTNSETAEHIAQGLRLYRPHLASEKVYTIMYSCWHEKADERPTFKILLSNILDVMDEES
# Description: The Btk IC50s of compounds disclosed herein was determined in one of the three in vitro assays described in Examples 125-127.
# as §1
# Kinase activity is measured in vitro using electrophoretic mobility shift assay. The kinase reactions are assembled in a total volume of 25 μL in 384 well plates. […] The reaction is incubated for one hour and is quenched by the addition of 45 μL of termination buffer (100 mM HEPES, pH7.5, 0.01% Triton X-100, 30 mM EDTA). The terminated reactions are analyzed using 12 channel LabChip® 3000 microfluidic detection instrument (Caliper Life Sciences). The enzymatic phosphorylation of the peptide results in a change in net charge, enabling electrophoretic separation of product from substrate peptide. As substrate and product peptides are separated, two peaks of fluorescence are observed. Change in the relative fluorescence intensity of the substrate and product peaks is the parameter measured, reflecting enzyme activity. In the presence of an inhibitor, the ratio between product and substrate is altered: the signal of the product decreases, while the signal of the substrate increases.
# Activity in each sample is determined as the product to sum ratio (PSR): P/(S+P), where P is the peak height of the product peptide and S is the peak height of the substrate peptide. For each compound, enzyme activity is measured at various concentrations (12 concentrations of compound spaced by 3× dilution intervals). Negative control samples (0%-inhibition in the absence of inhibitor) and positive control samples (100%-inhibition, in the presence of 20 mM EDTA) are assembled in replicates of four and are used to calculate %-inhibition values for each inhibitor at each concentration. Percent inhibition (Pinh) is determined using following equation: Pinh=(PSR0%−PSRinh)/(PSR0%−PSR100%)*100, where PSRinh is the product sum ratio in the presence of inhibitor, PSR0% is the average product sum ration in the absence of inhibitor and PSR100% is the average product sum ratio in 100%-inhibition control samples;
# The IC50 values of inhibitors are determined by 4 parameter sigmoidal dose-response model fitting of the inhibition curves (Pinh versus inhibitor concentration) using XLfit 4 software.
# Human Btk kinase (Genbank accession # NP_000052) was purified from insect cells as a full-length construct containing a N-terminal 6×-His tag. Btk kinase activity was determined using a radiometric filter binding assay. Measurements are performed in a low reaction volume 384-well assay plates. […]
# [7] = target: C-src (Homo sapiens, UniProt P12931); assay: C-src kinase inhibition
# Chain of C-src (P12931 whole entry): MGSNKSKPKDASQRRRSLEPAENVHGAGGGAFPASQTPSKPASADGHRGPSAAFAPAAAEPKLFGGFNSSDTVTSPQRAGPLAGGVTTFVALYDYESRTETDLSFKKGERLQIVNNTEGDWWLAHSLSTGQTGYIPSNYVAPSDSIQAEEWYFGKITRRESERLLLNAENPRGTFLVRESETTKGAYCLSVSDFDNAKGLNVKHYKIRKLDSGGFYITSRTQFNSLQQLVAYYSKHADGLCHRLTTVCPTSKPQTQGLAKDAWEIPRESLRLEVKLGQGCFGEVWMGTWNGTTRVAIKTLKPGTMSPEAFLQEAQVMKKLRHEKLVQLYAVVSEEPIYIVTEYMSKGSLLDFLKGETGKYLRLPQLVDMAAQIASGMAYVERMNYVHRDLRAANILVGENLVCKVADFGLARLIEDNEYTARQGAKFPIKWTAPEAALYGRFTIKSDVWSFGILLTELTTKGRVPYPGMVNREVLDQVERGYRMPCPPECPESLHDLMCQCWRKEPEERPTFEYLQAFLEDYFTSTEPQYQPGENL
# Description: as §1
# [8] = target: Lyn (Homo sapiens, UniProt P07948); assay: Lyn kinase inhibition
# Chain of Lyn (P07948 whole entry): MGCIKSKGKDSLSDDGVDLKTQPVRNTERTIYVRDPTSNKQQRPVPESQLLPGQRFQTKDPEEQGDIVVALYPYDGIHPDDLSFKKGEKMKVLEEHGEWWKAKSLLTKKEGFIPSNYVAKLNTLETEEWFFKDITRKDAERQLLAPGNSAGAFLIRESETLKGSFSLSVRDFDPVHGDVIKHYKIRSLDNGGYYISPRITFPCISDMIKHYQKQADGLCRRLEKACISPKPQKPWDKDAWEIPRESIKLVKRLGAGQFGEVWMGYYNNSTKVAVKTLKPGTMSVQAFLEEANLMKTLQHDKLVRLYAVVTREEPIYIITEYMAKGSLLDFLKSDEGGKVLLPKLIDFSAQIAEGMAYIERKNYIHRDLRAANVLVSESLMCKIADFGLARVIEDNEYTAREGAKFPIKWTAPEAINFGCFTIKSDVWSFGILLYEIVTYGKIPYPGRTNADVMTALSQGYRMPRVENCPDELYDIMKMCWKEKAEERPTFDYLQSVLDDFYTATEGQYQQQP
# [9] = target: EGFR (Homo sapiens, UniProt P00533); assay: EGFR kinase inhibition
# [10] = target: CSK (Homo sapiens, UniProt P41240); assay: CSK kinase inhibition
# Chain of CSK (P41240 whole entry): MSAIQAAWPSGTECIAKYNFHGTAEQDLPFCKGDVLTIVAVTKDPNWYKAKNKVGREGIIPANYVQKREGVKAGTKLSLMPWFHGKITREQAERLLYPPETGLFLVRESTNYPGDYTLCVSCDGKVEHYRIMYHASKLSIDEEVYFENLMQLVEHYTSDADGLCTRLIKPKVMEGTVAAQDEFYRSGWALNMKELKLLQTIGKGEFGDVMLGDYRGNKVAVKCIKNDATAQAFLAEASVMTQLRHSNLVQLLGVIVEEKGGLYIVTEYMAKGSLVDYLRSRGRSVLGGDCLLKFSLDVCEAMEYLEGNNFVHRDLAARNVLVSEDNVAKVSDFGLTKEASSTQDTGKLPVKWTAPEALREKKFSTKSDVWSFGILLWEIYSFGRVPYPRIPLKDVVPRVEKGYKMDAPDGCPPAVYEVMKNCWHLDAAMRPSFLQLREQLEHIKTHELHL
Compound,IC50 [1],IC50 [2],IC50 [3],IC50 [4],IC50 [5],IC50 [6],IC50 [7],IC50 [8],IC50 [9],IC50 [10]
"CN(C)C/C=C/C(=O)N1CC[C@@H](n2nc(-c3ccc(Cl)cc3)c3c(N)ncnc32)C1 [Example 1, (E)-1-((R)-3-(4-amino-3-(4-chlorophenyl)-1H-pyrazolo[3,4-d]pyrimidin-1-yl)pyrrolidin-1-yl)-4-(dimethylamino)but-2-en-1-one]",< 100 nM,< 100 nM,100 to 1000 nM,100 to 1000 nM,< 100 nM,< 100 nM,< 100 nM,100 to 1000 nM,100 to 1000 nM,100 to 1000 nM
"CN(C)C/C=C/C(=O)N1CC[C@@H](n2nc(-c3ccc(F)cc3)c3c(N)ncnc32)C1 [Example 3, (R,E)-1-(3-(4-amino-3-(4-fluorophenyl)-1H-pyrazolo[3,4-d]pyrimidin-1-yl)pyrrolidin-1-yl)-4-(dimethylamino)but-2-en-1-one]",< 100 nM,100 to 1000 nM,> 1000 nM,> 1000 nM,< 100 nM,< 100 nM,100 to 1000 nM,> 1000 nM,> 1000 nM,> 1000 nM
"Cc1ccc(-c2nn([C@@H]3CCN(C(=O)/C=C/CN(C)C)C3)c3ncnc(N)c23)cc1 [Example 4, (R,E)-1-(3-(4-amino-3-p-tolyl-1H-pyrazolo[3,4-d]pyrimidin-1-yl)pyrrolidin-1-yl)-4-(dimethylamino)but-2-en-1-one]",< 100 nM,< 100 nM,100 to 1000 nM,100 to 1000 nM,< 100 nM,< 100 nM,100 to 1000 nM,100 to 1000 nM,100 to 1000 nM,> 1000 nM
"COc1ccc(-c2nn([C@@H]3CCN(C(=O)/C=C/CN(C)C)C3)c3ncnc(N)c23)cc1 [Example 5, (R,E)-1-(3-(4-amino-3-(4-methoxyphenyl)-1H-pyrazolo[3,4-d]pyrimidin-1-yl)pyrrolidin-1-yl)-4-(dimethylamino)but-2-en-1-one]",< 100 nM,< 100 nM,100 to 1000 nM,100 to 1000 nM,< 100 nM,< 100 nM,100 to 1000 nM,100 to 1000 nM,> 1000 nM,> 1000 nM
"COc1cccc(-c2nn([C@@H]3CCN(C(=O)/C=C/CN(C)C)C3)c3ncnc(N)c23)c1 [Example 6, (R,E)-1-(3-(4-amino-3-(3-methoxyphenyl)-1H-pyrazolo[3,4-d]pyrimidin-1-yl)pyrrolidin-1-yl)-4-(dimethylamino)but-2-en-1-one]",< 100 nM,< 100 nM,100 to 1000 nM,100 to 1000 nM,< 100 nM,< 100 nM,< 100 nM,100 to 1000 nM,100 to 1000 nM,> 1000 nM
"CN(C)C/C=C/C(=O)N1CC[C@@H](n2nc(-c3ccc(Cl)cc3F)c3c(N)ncnc32)C1 [Example 7, (R,E)-1-(3-(4-amino-3-(4-chloro-2-fluorophenyl)-1H-pyrazolo[3,4-d]pyrimidin-1-yl)pyrrolidin-1-yl)-4-(dimethylamino)but-2-en-1-one]",< 100 nM,100 to 1000 nM,100 to 1000 nM,100 to 1000 nM,< 100 nM,< 100 nM,< 100 nM,100 to 1000 nM,100 to 1000 nM,100 to 1000 nM
"COc1cc(-c2nn([C@@H]3CCN(C(=O)/C=C/CN(C)C)C3)c3ncnc(N)c23)ccc1F [Example 8, (R,E)-1-(3-(4-amino-3-(4-fluoro-3-methoxyphenyl)-1H-pyrazolo[3,4-d]pyrimidin-1-yl)pyrrolidin-1-yl)-4-(dimethylamino)but-2-en-1-one]",< 100 nM,100 to 1000 nM,100 to 1000 nM,> 1000 nM,< 100 nM,< 100 nM,100 to 1000 nM,> 1000 nM,100 to 1000 nM,> 1000 nM
"COc1cc(-c2nn(-c3cccc(N(C)C(=O)/C=C/CN(C)C4CC4)c3)c3ncnc(N)c23)ccc1C [Example 24, (E)-N-(3-(4-amino-3-(3-methoxy-4-methylphenyl)-1H-pyrazolo[3,4-d]pyrimidin-1-yl)phenyl)-4-(cyclopropyl(methyl)amino)-N-methylbut-2-enamide]",< 100 nM,< 100 nM,100 to 1000 nM,> 1000 nM,< 100 nM,< 100 nM,100 to 1000 nM,< 100 nM,,> 1000 nM

# From patent publication US9546172B2, “Pyrazolo[3,4-d]pyrimidine and pyrazolo[2,3-d]pyrimidine compounds as kinase inhibitors” (Pharmacyclics LLC, priority 2011, dated 2017)
